# Measurements reported in US5063208A, “Peptidyl aminodiol renin inhibitors” (Abbott Laboratories, priority 1990, dated 1991).
# Target: T1, human renal renin (Homo sapiens, UniProt P00797)
# T1 construct: human renal renin, free from acid proteolytic activity; from tissue
# T1 sequence (P00797 67-406): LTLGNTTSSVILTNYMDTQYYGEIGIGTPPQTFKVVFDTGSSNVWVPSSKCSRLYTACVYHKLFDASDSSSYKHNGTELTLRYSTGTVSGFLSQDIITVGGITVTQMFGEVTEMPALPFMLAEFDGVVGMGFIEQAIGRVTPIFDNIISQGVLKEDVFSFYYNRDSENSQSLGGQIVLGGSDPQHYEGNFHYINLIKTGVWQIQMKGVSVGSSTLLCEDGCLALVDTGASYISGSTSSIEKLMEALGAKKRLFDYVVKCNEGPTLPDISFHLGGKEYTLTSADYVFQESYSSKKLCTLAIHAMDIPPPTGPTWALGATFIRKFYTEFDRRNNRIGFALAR
# Assay: Inhibition of human renal renin in vitro (angiotensin I formed measured by radioimmunoassay)
# Type: biochemical
# Conditions: human renal renin free from acid proteolytic activity, renin substrate human angiotensinogen, 37 degrees C, pH 6.0; read-out: IC50 (molar concentration required to cause 50% inhibition)
# Experimental: The compounds of the invention are also useful for treating congestive heart failure in a mammal. […] At the end of the incubation, the amount of angiotensin I formed is measured by radioimmunoassay and the molar concentration required to cause 50% inhibition, expressed as the IC50, is calculated.
row,SMILES,IC50
1,CC(C)C[C@H](O)[C@H](O)[C@H](CC1CCCCC1)NC(=O)[C@H](Cc1cscn1)NC(=O)[C@@H](CC(=O)N(C)CCc1ccccn1)Cc1ccccc1 [Example 114],0.33 nM
2,"CON(C)C[C@@H](Cc1ccccc1)C(=O)N[C@@H](Cc1cscn1)C(=O)N[C@@H](CC1CCCCC1)[C@@H](O)[C@@H](O)CC(C)C [Example 100, (2R)-2-Benzyl-3-(N-methoxy-N-methylamino)propionyl-L-(4-thiazolyl)Ala Amide of (2S,3R,4S)-2-Amino-1-cyclohexyl-3,4-dihydroxy-6-methylheptane]",1.8 nM
3,"CC(C)C[C@H](O)[C@H](O)[C@H](CC1CCCCC1)NC(=O)[C@H](Cc1cscn1)NC(=O)[C@@H](Cc1ccccc1)CS(=O)(=O)N(C)CCc1ccccn1 [Example 109, (2R)-2-Benzyl-3-[[2-pyridin-2-ylethyl(methyl)amino]sulfonyl]propionyl-L-(4-thiazolyl)Ala Amide of (2S,3R,4S)-2-Amino-1-cyclohexyl-3,4-dihydroxy-6-methylheptane]",0.25 nM
4,"CC[C@H](O)[C@H](O)[C@H](CC1CCCCC1)NC(=O)[C@H](Cc1cscn1)NC(=O)[C@@H](CC(=O)N(C)CCn1cccn1)Cc1ccccc1 [Example 112, (2R)-2-Benzyl-3-[(2-pyrazol-1-ylethyl)methylaminocarbonyl]propionyl-L-(4-Thiazolyl)Ala Amide of (2S,3R,4S)-2-Amino-1-cyclohexyl-3,4-dihydroxyhexane]",0.25 nM
5,"CC(C)C[C@H](O)[C@H](O)[C@H](CC1CCCCC1)NC(=O)[C@H](Cc1cscn1)NC(=O)[C@@H](CC(=O)N1CCN(CC(F)(F)F)CC1)Cc1ccccc1 [Example 94, (2R)-2-Benzyl-3-(4-trifluoroethylpiperazin-1-ylcarbonyl)propionyl-L-(4-thiazolyl)Ala Amide of (2S,3R,4S)-2-Amino-1-cyclohexyl-3,4-dihydroxy-6-methylheptane]",0.57 nM
6,"CC(C)C[C@H](O)[C@H](O)[C@H](CC1CCCCC1)NC(=O)[C@H](Cc1cscn1)NC(=O)[C@H](Cc1ccccc1)Cc1cscn1 [Example 97, (2R)-2-Benzyl-3-thiazol-4-ylpropionyl-L-(4-thiazolyl)Ala Amide of (2S,3R,4S)-2-Amino-1-cyclohexyl-3,4-dihydroxy-6-methylheptane]",0.68 nM
7,"CC(C)C[C@H](O)[C@H](O)[C@H](CC1CCCCC1)NC(=O)[C@H](Cc1cscn1)NC(=O)[C@H](Cc1ccccc1)N1CCOCC1 [Example 113, (2S)-2-(4-Morpholinyl)-3-phenylpropionyl-L-(4-thiazolyl)Ala Amide of (2S,3R,4S)-2-Amino-1-cyclohexyl-3,4-dihydroxy-6-methylheptane]",0.15 nM
8,"CC(C)C[C@H](NC(=O)[C@H](Cc1cscn1)NC(=O)[C@@H](CC(=O)N(C)CCn1cccn1)Cc1ccccc1)[C@@H](O)[C@@H](O)CC(C)C [Example 111, (2R)-2-Benzyl-3-[(2-pyrazol-1-ylethyl)methylaminocarbonyl]propionyl-L-(4-Thiazolyl)Ala Amide of (4S,5R,6S)-6-Amino-4,5-dihydroxy-2,8-dimethylnonane]",0.49 nM
9,"CC(C)C[C@H](O)[C@H](O)[C@H](CC1CCCCC1)NC(=O)[C@H](Cc1cscn1)NC(=O)[C@@H](CC1=CSC2=NCCN12)Cc1ccccc1 [Example 105, (2R)-2-Benzyl-3-(5,6-dihydroimidazo[2,1-b]thiazol-3-yl)propionyl-L-(4-thiazolyl)Ala Amide of (2S,3R,4S)-2-Amino-1-cyclohexyl-3,4-dihydroxy-6-methylheptane]",1.1 nM
10,"CCCC[C@H](NC(=O)C(Cc1ccccc1)CS(=O)(=O)C1CN(C)C1)C(=O)N[C@@H](CC1CCCCC1)[C@@H](O)[C@@H](O)CC(C)C (mixture of isomers) [Example 110, (2RS)-2-Benzyl-3-(1-methylazetidin-3-ylsulfonyl)propionyl-Nle Amide of (2S,3R,4S)-2-Amino-1-cyclohexyl-3,4-dihydroxy-6-methylheptane]",2.3 nM
11,"CC(C)C[C@H](O)[C@H](O)[C@H](CC1CCCCC1)NC(=O)[C@H](Cc1cscn1)NC(=O)[C@@H](Cc1ccccc1)CS(=O)(=O)C1CN(C)C1 [Example 108, (2R)-2-Benzyl-3-(1-methylazetidin-3-ylsulfonyl)propionyl-L-(4-thiazolyl)AlaAmide of (2S,3R,4S)-2-Amino-1-cyclohexyl-3,4-dihydroxy-6-methylheptane]",0.44 nM

# The next lines start with the values.
row,IC50,SMILES
1,0.88 nM,"CC(C)C[C@H](O)[C@H](O)[C@H](CC1CCCCC1)NC(=O)[C@H](Cn1ccnc1)NC(=O)[C@@H](CC(=O)N(C)CCc1ccccn1)Cc1ccccc1 [Example 141, (2R)-2-Benzyl-3-[(2-pyridin-2-ylethyl)methylaminocarbonyl]propionyl-L-(1-imidazolyl)Ala Amide of (2S,3R,4S)-2-Amino-1-cyclohexyl-3,4-dihydroxy-6-methylheptane]"
2,0.12 nM,"CC(C)C[C@H](O)[C@H](O)[C@H](CC1CCCCC1)NC(=O)[C@H](Cn1cccn1)NC(=O)[C@@H](CC(=O)N(C)CCN1CCOCC1)Cc1ccccc1 [Example 140, (2R)-2-Benzyl-3-[(2-morpholin-4-ylethyl)methylaminocarbonyl]propionyl-L-(1-pyrazolyl)Ala Amide of (2S,3R,4S)-2-Amino-1-cyclohexyl-3,4-dihydroxy-6-methylheptane.]"
3,0.33 nM,"CCCC[C@H](NC(=O)[C@@H](CC(=O)N(C)CCn1cccn1)Cc1ccccc1)C(=O)N[C@@H](CC1CCCCC1)[C@@H](O)[C@@H](O)CC(C)C [Example 121, (2R)-2-Benzyl-3-[(2-pyrazol-1-ylethyl)methylaminocarbonyl]propionyl-Nle Amide of (2S,3R,4S)-2-Amino-1-cyclohexyl-3,4-dihydroxy-6-methylheptane]"
4,0.33 nM,"CC(C)C[C@H](O)[C@H](O)[C@H](CC1CCCCC1)NC(=O)[C@H](Cn1cccn1)NC(=O)[C@@H](CC(=O)N(C)CCc1ccccn1)Cc1ccccc1 [Example 119, (2R)-2-Benzyl-3-[(2-pyridin-2-ylethyl)methylaminocarbonyl]propionyl-L-(1-pyrazolyl)Ala Amide of (2S,3R,4S)-2-Amino-1-cyclohexyl-3,4-dihydroxy-6-methylheptane]"
5,0.59 nM,"CC(C)C[C@H](O)[C@H](O)[C@H](CC1CCCCC1)NC(=O)[C@H](Cc1cscn1)NC(=O)[C@@H](CC(=O)N(C)CCc1c[nH]c2ccccc12)Cc1ccccc1 [Example 152, (2R)-2-Benzyl-3-[(2-indol-3-ylethyl)methylaminocarbonyl]propionyl-L-(4-thiazolyl)Ala Amide of (2S,3R,4S)-2-Amino-1-cyclohexyl-3,4-dihydroxy-6-methylheptane]"
6,0.78 nM,"COc1ccc(C[C@H](NC(=O)N(C)CCc2ccccn2)C(=O)N[C@@H](Cc2cscn2)C(=O)N[C@@H](CC2CCCCC2)[C@@H](O)[C@@H](O)CC(C)C)cc1 [Example 115, [2-Pyridin-2-ylethyl(methyl)amino]carbonyl(O-methyl)pyrosine-L-(4-thiazolyl)Ala Amide of (2S,3R,4S)-2-Amino-1-cyclohexyl-3,4-dihydroxy-6-methylheptane]"
7,1.3 nM,"CC(C)C[C@H](O)[C@H](O)[C@H](CC1CCCCC1)NC(=O)C(Cn1cccn1)N(C)C(=O)[C@@H](CC(=O)N(C)CCc1ccccn1)Cc1ccccc1 (stereo partly drawn) [Example 134, (2R)-2-Benzyl-3-[(2-pyridin-2-ylethyl)methylaminocarbonyl]propionyl-(N-α-methyl)-(1-pyrazolyl) alanine Amide of (2S,3R,4S)-2-Amino-1-cyclohexyl-3,4-dihydroxy-6-methylheptane]"
8,0.43 nM,"CCCC[C@H](NC(=O)[C@@H](CC(=O)N(C)CCc1ccccn1)Cc1ccccc1)C(=O)N[C@@H](CC1CCCCC1)[C@@H](O)[C@@H](O)CC(C)C [Example 122, (2R)-2-Benzyl-3-[(2-pyridin-2-ylethyl)methylaminocarbonyl]propionyl-Nle Amide of (2S,3R,4S)-2-Amino-1-cyclohexyl-3,4-dihydroxy-6-methylheptane]"
